# Source: patent publication US12479794B2, “Acetophenone oxime compound and application thereof” (Medshine Discovery Inc., priority 2020, dated 2025)
# pEC50: −log10 of the molar value.
# How the values were obtained:
# [1] = test system: ischemia-reperfusion cerebral infarction model; experiment: Ischemia-reperfusion cerebral infarction (MCAO) model in male SD rats; type: in vivo; settings: 90-min MCAO ischemia-reperfusion, 1 mg/kg tail vein after reperfusion, model group 32.4%, P<0.05 vs. model group
# Excerpt: Assay Example 3: Pharmacodynamic Evaluation of the Compound in Ischemia-Reperfusion Cerebral Infarction Model in Male SD Rats Object of the assay: pharmacodynamic assay to explore the improvement of compound 32 on the ischemia-reperfusion cerebral infarction model in rats Materials of the assay: male SD rats (250 g-280 g, SPF grade, Zhejiang Vital River Laboratory Animal Technology Co., Ltd.) • 1) Anesthesia: Respiratory anesthesia with 2.5% isoflurane was used to maintain the depth of anesthesia for animals. • 2) Middle Cerebral Artery Occlusion (MCAO) Model: Animals weighed in the range of 250-280 g at the time of modeling surgery. […] For the administration of the assay sample group, compound 32 was injected through the tail vein of rats after reperfusion with a dose of 1 mg/kg and a volume of 5 mL/kg. • 3) Success criteria for the model: • 1: Within 60 minutes after surgery, the animals were scored according to the Bederson method, and the animals with a score of 2-3 were included in the group. • 2: Within 30-60 minutes of modeling, if the cerebral blood flow on the model side (left side) was reduced by more than 30% compared with that on the right side, the model was considered successful, and the animal was included in the group. […]
# S1P1 = target: T1, S1P1 (Homo sapiens, UniProt P21453); experiment: In vitro agonistic activity on S1P1, U2OS-EDG1 cells, LiveBLAzer FRET B/G; type: cell-based
# T1 construct: host or cells: U2OS
# T1 sequence (P21453 whole entry): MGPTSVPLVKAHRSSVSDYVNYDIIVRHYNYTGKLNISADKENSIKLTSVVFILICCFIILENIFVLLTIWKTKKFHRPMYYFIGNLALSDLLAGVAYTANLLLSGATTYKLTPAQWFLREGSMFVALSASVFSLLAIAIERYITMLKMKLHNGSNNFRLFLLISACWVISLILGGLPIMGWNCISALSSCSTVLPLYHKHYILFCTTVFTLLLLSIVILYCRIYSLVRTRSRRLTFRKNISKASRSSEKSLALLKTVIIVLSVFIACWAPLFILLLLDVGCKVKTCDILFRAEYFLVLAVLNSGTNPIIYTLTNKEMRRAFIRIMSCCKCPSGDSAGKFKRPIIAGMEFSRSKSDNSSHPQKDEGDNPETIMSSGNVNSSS
# Method: Assay Example 1: In Vitro Evaluation of the Agonistic Activity of the Compounds of the Present Disclosure on S1P1
# Object of the assay: To detect the agonistic activity of compounds on S1P1
# • 1. Cells U2OS-EDG1 (Batch No.: Invitrogen-K1520) were taken out of a liquid nitrogen tank and placed in a 37° C. water bath to thaw quickly; • 2. The cell suspension was aspirated into a 15 ml centrifuge tube, resuspended in 5 ml of preheated medium, and centrifuged at 1000 rpm for 5 min; • 3. The supernatant was discarded. The cells were resuspended in 10 ml of medium, transferred into a T75 culture flask, and cultivated in an incubator with 5% CO2 at 37° C. II. Agonist Assay • 1. The compounds were diluted to working concentrations, and serially diluted 3-fold by Echo 555 (manufacturer: Labcyte) to obtain 10 concentrations; 200 nL of each concentration of the compound was transferred to a cell plate and centrifuged at 1000 rpm for 15 seconds; • 2. Culture medium was aspirated from the culture flask; 4 mL of Dulbecco's phosphate buffer (DPBS, supplier: Coring, item No.: 21-031-CVR, batch No.: 03318006) was added, and the residual serum was washed away; 2 mL of trypsin was added; The mixture was incubated in an incubator at 37° C. for 2 min, and the cells were digested; 10 mL of seeding medium was added to resuspend the cells; 0.6 mL of cell suspension was taken out and counted; • 3. The density of cells was adjusted to 1.88E+05 cells/mL using seeding medium, with 40 μL per well (7500\well); 40 μL of FreeStyle™ Expression medium was added around the cell plate; The plate was let stand at room temperature for 15 min and incubated at 37° C. with 5% CO2 for 20 hours. III. Signal Detection • 1. LiveBLAzer™-FRET B/G Substrate (CCF4-AM) assay reagents were formulated according to the instructions; • 2. 8 μL of 6×Substrate Mixture was added to each well of the cell plate; The plate was centrifuged at 1000 rpm for 15 seconds, covered with a film, and incubated at 23° C. for 2 hours; The cell plate was subjected to Envision […] detection. IV. Data Analysis • 1. The raw data were converted into % Effect by using an equation, and the EC50 value can be obtained by curve fitting with four parameters [“log(agonist) vs. response—Variable slope” model in GraphPad Prism]; • 2. Calculation formula: Ratio=(460 nm−blank)/(535 nm−blank) % Effect=(SampleRatio−Ave LCRatio)/(Ave HCRatio−Ave LCRatio)×100%
# [2] = Pharmacokinetic evaluation in SD rats (iv and oral); type: in vivo, Sprague Dawley rats; settings: male, Sprague-Dawley, rat, plasma, iv 1.0, po 2.0 mg/kg
# Method: Assay Example 2: Pharmacokinetic Evaluation of Compounds in Rats
# Object of the assay: To evaluate the in vivo pharmacokinetics of the compounds in SD rats
# Sprague Dawley rats (male, 200-300 g, 7-9 weeks old, Shanghai SLAC)
# The pharmacokinetic characteristics of the compounds in rodents after intravenous injection and oral administration were assayed according to the standard protocol. In the assay, the candidate compounds were formulated into clear solutions and administered to rats by single intravenous injection and oral administration. The vehicle for intravenous injection and oral administration was DMSO and 10% hydroxypropyl β-cyclodextrin in water (DMSO:10% hydroxypropyl β-cyclodextrin in water=5:95). Whole blood samples were collected within 48 hours, and centrifuged at 3000 g for 15 minutes. The supernatant was separated to give plasma samples. 4 times the volume of acetonitrile solution containing internal standard was added to precipitate protein. The resulting mixture was centrifuged and the supernatant was taken out. An equal volume of water was added and the mixture was centrifuged. The supernatant was taken out, and injected as a sample to quantitatively analyze the plasma drug concentration by LC-MS/MS analysis method. The pharmacokinetic parameters, such as peak concentration, time to peak, clearance rate, half-life, area under drug-time curve, bioavailability, etc., were calculated.
smiles,measurement,setting,value
C/C(=N\OCc1ccc(OC(C)C)c(C(F)(F)F)c1)c1ccc2c(c1)CCC2N1CC(C(=O)O)C1 (stereo not drawn) [Compound 32],Percentage of left cerebral infarct area,[1],21.0%
same,pEC50,S1P1,8.64
same,Emax,S1P1; % Effect,98.6%
same,clearance,"[2]; intravenous, read-out: Clearance rate CL",11.3 mL/min/kg
same,Vd,"[2]; intravenous, read-out: Distribution in tissue Vdss",4.35 L/kg
same,bioavailability,[2]; read-out: Bioavailability F,92.7%
same,Cmax,[2]; read-out: Peak concentration Cmax,556 nM
same,AUC(0-t),"[2]; po, 2 mg/kg, PO, read-out: Area under drug-time curve AUC0-last PO",5.47 µM·h
same,half-life,"[2]; po, 2 mg/kg, PO, read-out: Half life T1/2 (PO) (converted)",5.44 h
